{"source": "ChEMBL document CHEMBL5046290", "about": "“Design, Synthesis, and Preclinical Profiling of GSK3739936 (BMS-986180), an Allosteric Inhibitor of HIV-1 Integrase with Broad-Spectrum Activity toward 124/125 Polymorphs” (J Med Chem, 2022)", "key": {"Cytochrome P450 2D6": {"target": "Cytochrome P450 2D6 (Homo sapiens, UniProt P10635)", "sequence (P10635 whole entry)": "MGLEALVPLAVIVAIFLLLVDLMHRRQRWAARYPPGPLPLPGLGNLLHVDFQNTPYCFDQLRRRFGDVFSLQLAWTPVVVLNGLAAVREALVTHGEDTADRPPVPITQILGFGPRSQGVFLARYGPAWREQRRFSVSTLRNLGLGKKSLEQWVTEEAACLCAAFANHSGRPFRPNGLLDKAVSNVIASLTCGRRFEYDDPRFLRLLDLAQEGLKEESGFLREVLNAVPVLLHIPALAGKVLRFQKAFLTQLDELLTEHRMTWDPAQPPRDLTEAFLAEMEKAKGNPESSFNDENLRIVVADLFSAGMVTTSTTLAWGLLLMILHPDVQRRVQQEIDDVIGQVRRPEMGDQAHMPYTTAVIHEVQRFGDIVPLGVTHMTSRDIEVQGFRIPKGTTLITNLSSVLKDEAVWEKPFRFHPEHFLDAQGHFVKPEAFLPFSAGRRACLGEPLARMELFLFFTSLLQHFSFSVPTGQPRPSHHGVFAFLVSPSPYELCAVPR", "assay": "Inhibition of human CYP2D6", "assay_type": "ADME"}, "sodium channel": {"test_system": "sodium channel", "assay": "Inhibition of sodium channel (unknown origin) at 10 uM", "assay_type": "toxicity", "conditions": "human"}, "[1]": {"assay": "Toxicity in rat assessed as histological changes in adrenal gland at 500 mg/kg/day", "assay_type": "organism-based", "conditions": "in vivo"}, "[2]": {"test_system": "Human immunodeficiency virus 1", "assay": "Antiviral activity against recombinant HIV1 NLRep-Rluc harbouring polymorphic NT infected in human MT-2 cells assessed as inhibition of virus growth in presence of fetal bovine serum by measuring luciferase activity after 5 days", "assay_type": "functional, organism-based", "conditions": "Human immunodeficiency virus 1, NLRep, MT2, 120 h"}, "[3]": {"assay": "Clearance in Cynomolgus monkey at 1 mg/kg, iv by LC-MS/MS analysis", "assay_type": "ADME, organism-based, Macaca fascicularis", "conditions": "in vivo"}, "[4]": {"assay": "Toxicity in rat assessed as histological changes in spleen at 500 mg/kg/day", "assay_type": "organism-based", "conditions": "in vivo"}, "CYP [5]": {"target": "CYP (Homo sapiens, UniProt P04798+P05177+P05181+P08684+P10632+P10635+P11509+P11712+P13584+P20813+P20815+P20853+P24462+P24903+P33260+P33261+P51589+P78329+P98187+Q02928+Q08477+Q16678+Q16696+Q5TCH4+Q6VVX0+Q7Z449+Q8TAV3+Q96SQ9+Q9HB55)", "assay": "Half life in human assessed as CYP mediated metabolism in presence of […] by phase I metabolic oxidation assay", "assay_type": "ADME, protein assay"}, "[6]": {"assay": "Elimination half life in Beagle dog at 1 mg/kg, iv by LC-MS/MS analysis", "assay_type": "ADME, organism-based, Canis lupus familiaris", "conditions": "in vivo, read-out: beta t1/2 (converted)"}, "[7]": {"assay": "AUC in Beagle dog at 2 mg/kg, po by LC-MS/MS analysis", "assay_type": "ADME, organism-based, Canis lupus familiaris", "design": "dose 2 mg/kg", "conditions": "in vivo"}, "[8]": {"assay": "Clearance in Sprague-Dawley rat at 1 mg/kg, iv by LC-MS/MS analysis", "assay_type": "ADME, organism-based", "conditions": "in vivo"}, "[9]": {"assay": "Displacement of [3H](S)-2-(tert-butoxy)-2-(2-methyl-4-(p-tolyl)quinolin-3-yl)acetic acid from LEDGF-binding site of recombinant T124/T125 polymorphic HIV1 integrase by LIDIA assay", "design": "species or system Human immunodeficiency virus 1"}, "[10]": {"assay": "Toxicity in rat assessed as histological changes in stomach at 500 mg/kg/day", "assay_type": "organism-based", "conditions": "in vivo"}, "[11]": {"assay": "Plasma protein binding in dog", "assay_type": "ADME, cell-free, Canis lupus familiaris", "conditions": "read-out: PPB (converted)"}, "[12]": {"assay": "AUC in cynomolgus monkey at 2 mg/kg, po by LC-MS/MS analysis", "assay_type": "ADME, organism-based, Macaca fascicularis", "design": "dose 2 mg/kg", "conditions": "in vivo"}, "[13]": {"assay": "Cmax in cynomolgus monkey at 2 mg/kg, po by LC-MS/MS analysis", "assay_type": "ADME, organism-based, Macaca fascicularis", "design": "route oral, dose 2 mg/kg", "conditions": "in vivo"}, "[14]": {"test_system": "Human immunodeficiency virus 1", "assay": "Antiviral activity against recombinant HIV1 A128T-resitant mutant […] infected in human MT-2 cells assessed as inhibition of virus growth in presence of fetal bovine serum by measuring luciferase activity after 5 days", "assay_type": "functional, organism-based", "conditions": "Human immunodeficiency virus 1, MT2, 120 h"}, "[15]": {"assay": "Toxicity in rat at 500 mg/kg/day for one week", "assay_type": "organism-based", "conditions": "in vivo"}, "[16]": {"assay": "Cardiotoxicity in dog heart assessed as increase in heart rate at 300 mg/kg", "assay_type": "toxicity, organism-based, Canis lupus familiaris", "conditions": "in vivo"}, "[17]": {"assay": "Plasma protein binding in human", "assay_type": "ADME, cell-free", "conditions": "read-out: PPB (converted)"}, "[18]": {"assay": "Cytotoxicity against human MT2 cells assessed as cell viability measured after 4 days by XTT assay", "assay_type": "toxicity, cell-based", "conditions": "time 4 day"}, "Cytochrome P450 1A2": {"target": "T1, Cytochrome P450 1A2 (Homo sapiens, UniProt P05177)", "T1 sequence (P05177 whole entry)": "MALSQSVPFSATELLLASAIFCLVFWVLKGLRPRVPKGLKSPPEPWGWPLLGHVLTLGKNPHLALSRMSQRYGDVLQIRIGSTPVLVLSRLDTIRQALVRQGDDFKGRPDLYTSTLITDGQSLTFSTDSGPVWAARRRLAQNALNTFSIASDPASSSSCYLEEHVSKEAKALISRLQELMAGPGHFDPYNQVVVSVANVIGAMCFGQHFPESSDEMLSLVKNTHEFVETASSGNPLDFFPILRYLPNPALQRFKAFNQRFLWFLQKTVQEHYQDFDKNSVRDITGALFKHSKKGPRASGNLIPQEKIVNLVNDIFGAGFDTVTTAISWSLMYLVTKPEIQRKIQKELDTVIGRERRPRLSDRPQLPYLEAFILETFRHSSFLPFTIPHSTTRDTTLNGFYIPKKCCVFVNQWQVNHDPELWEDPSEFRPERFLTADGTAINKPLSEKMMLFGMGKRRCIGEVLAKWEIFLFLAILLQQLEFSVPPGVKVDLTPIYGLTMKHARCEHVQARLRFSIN", "assay": "Inhibition of human CYP1A2", "assay_type": "ADME"}, "[19]": {"assay": "Toxicity in rat assessed as histological changes in thymus at 500 mg/kg/day", "assay_type": "organism-based", "conditions": "in vivo"}, "Salmonella typhimurium [20]": {"test_system": "Salmonella typhimurium", "assay": "Mutagenicity in Salmonella Typhimurium using Aroclor 1254 induced rat liver S9 fraction by […] assay", "assay_type": "toxicity, organism-based", "conditions": "salmonella enterica subsp. enterica serovar typhimurium"}, "[21]": {"assay": "Stability in pH 4 for 2 weeks at 50 degC", "assay_type": "physicochemical", "conditions": "buffer, pH 4, 336 h"}, "[22]": {"assay": "AUC in Sprague-Dawley rat at 5 mg/kg, po by LC-MS/MS analysis", "assay_type": "ADME, organism-based", "design": "dose 5 mg/kg", "conditions": "in vivo"}, "UGT": {"test_system": "UGT", "assay": "Metabolic stability assessed as dog UGT-mediated metabolism by measuring half life by phase II UGT conjugation assay", "assay_type": "ADME, Canis lupus familiaris"}, "[23]": {"assay": "Toxicity in rat assessed as histological changes in lymph node at 500 mg/kg/day", "assay_type": "organism-based", "conditions": "in vivo"}, "[24]": {"test_system": "Human immunodeficiency virus 1", "assay": "Antiviral activity against recombinant HIV1 NLRep-Rluc harbouring polymorphic T124/T125 integrase infected in human MT-2 cells assessed as inhibition of virus growth in presence of fetal bovine serum by measuring luciferase activity after 5 days", "assay_type": "functional, organism-based, MT2", "conditions": "Human immunodeficiency virus 1, NLRep, MT2, 120 h"}, "[25]": {"assay": "Stability in pH 7.4 for 2 weeks at 50 degC", "assay_type": "physicochemical", "conditions": "buffer, pH 7.4, 336 h"}, "[26]": {"assay": "Toxicity in rat at 50 to 500 mg/kg in cannulated jugular vein", "assay_type": "organism-based", "conditions": "in vivo, iv, dose 50-500 mg/kg"}, "[27]": {"assay": "Volume of distribution at steady state in Sprague-Dawley rat at 1 mg/kg, iv by LC-MS/MS analysis", "assay_type": "ADME, organism-based", "conditions": "in vivo, read-out: Vdss"}, "[28]": {"assay": "Toxicity in dog assessed as vomiting at >=100 mg/kg, po administered as single dose", "assay_type": "organism-based, Canis lupus familiaris", "conditions": "in vivo"}, "CYP [29]": {"test_system": "CYP", "assay": "Half life in rat assessed as CYP mediated metabolism in presence of […] by phase I metabolic oxidation assay", "assay_type": "ADME"}, "[30]": {"assay": "Solubility of the compound using amorphous form of sample", "assay_type": "physicochemical"}, "[31]": {"assay": "Clearance in Beagle dog at 1 mg/kg, iv by LC-MS/MS analysis", "assay_type": "ADME, organism-based, Canis lupus familiaris", "conditions": "in vivo"}, "[32]": {"assay": "Oral bioavailability in cynomolgus monkey at 2 mg/kg by LC-MS/MS analysis", "assay_type": "ADME, organism-based, Macaca fascicularis", "conditions": "in vivo"}, "[33]": {"assay": "Bioavailability in Beagle dog at 2 mg/kg, po by LC-MS/MS analysis", "assay_type": "ADME, organism-based, Canis lupus familiaris", "conditions": "in vivo"}, "[34]": {"assay": "Volume of distribution at steady state in CD-1 mouse at 1 mg/kg, iv by LC-MS/MS analysis", "assay_type": "ADME, organism-based", "conditions": "in vivo, read-out: Vdss"}, "Salmonella typhimurium [35]": {"test_system": "Salmonella typhimurium", "assay": "Genotoxicity in Salmonella typhimurium TA102 by Ames test", "assay_type": "toxicity, organism-based", "conditions": "salmonella enterica subsp. enterica serovar typhimurium"}, "[36]": {"assay": "Cmax in Sprague-Dawley rat at 5 mg/kg, po by LC-MS/MS analysis", "assay_type": "ADME, organism-based", "design": "route oral, dose 5 mg/kg", "conditions": "in vivo"}, "[37]": {"assay": "Cardiotoxicity in dog heart assessed as decrease in blood pressure at 300 mg/kg", "assay_type": "toxicity, organism-based, Canis lupus familiaris", "design": "scale not given: the % may be the effect or the level left", "conditions": "in vivo"}}, "note": "pEC50, pIC50: −log10 of the molar value."}
{"smiles": "Cc1nc(C)c([C@H](OC(C)(C)C)C(=O)O)c(N2CCC(C)(C)CC2)c1-c1ccc(OCCc2ccc(F)cc2)cc1", "values": [{"measurement": "pIC50", "setting": "Cytochrome P450 2D6", "value": "≤ 4.61"}, {"measurement": "inhibition at 10 µM", "setting": "sodium channel", "value": 79, "unit": "%"}, {"measurement": "Activity", "setting": "[1]", "value": "Toxic"}, {"measurement": "pEC50", "setting": "[2]", "value": 8.46}, {"measurement": "clearance", "setting": "[3]", "value": 14.5, "unit": "mL/min/kg"}, {"measurement": "Activity", "setting": "[4]", "value": "Toxic"}, {"measurement": "half-life", "setting": "CYP [5]", "value": 1.42, "unit": "h"}, {"measurement": "half-life", "setting": "[6]", "value": 5.1, "unit": "h"}, {"measurement": "AUC", "setting": "[7]", "value": 18.5, "unit": "µM·h"}, {"measurement": "clearance", "setting": "[8]", "value": 5.5, "unit": "mL/min/kg"}, {"measurement": "pIC50", "setting": "[9]", "value": 7.95}, {"measurement": "Activity", "setting": "[10]", "value": "Toxic"}, {"measurement": "fraction unbound", "setting": "[11]", "value": 0.13}, {"measurement": "AUC", "setting": "[12]", "value": 2.23, "unit": "µM·h"}, {"measurement": "Cmax", "setting": "[13]", "value": 525, "unit": "nM"}, {"measurement": "pEC50", "setting": "[14]", "value": 6.44}, {"measurement": "Activity", "setting": "[15]", "value": "Toxic"}, {"measurement": "Activity", "setting": "[16]", "value": 15, "unit": "%"}, {"measurement": "fraction unbound", "setting": "[17]", "value": 0.2}, {"measurement": "CC50 at 96 h", "setting": "[18]", "value": "≥ 33500", "unit": "nM"}, {"measurement": "pIC50", "setting": "Cytochrome P450 1A2", "value": "≤ 4.61"}, {"measurement": "Activity", "setting": "[19]", "value": "Toxic"}, {"measurement": "Activity", "setting": "Salmonella typhimurium [20]", "value": "Non-Toxic"}, {"measurement": "Stability", "setting": "[21]", "value": "Stable"}, {"measurement": "AUC", "setting": "[22]", "value": 14, "unit": "µM·h"}, {"measurement": "half-life", "setting": "UGT", "value": "≥ 2", "unit": "h"}, {"measurement": "Activity", "setting": "[23]", "value": "Toxic"}, {"measurement": "pEC50", "setting": "[24]", "value": 8.77}, {"measurement": "Stability", "setting": "[25]", "value": "Stable"}, {"measurement": "Activity", "setting": "[26]", "value": "Non-Toxic"}, {"measurement": "Vd", "setting": "[27]", "value": 0.8, "unit": "L/kg"}, {"measurement": "Activity", "setting": "[28]", "value": "Toxic"}, {"measurement": "half-life", "setting": "CYP [29]", "value": "> 2", "unit": "h"}, {"measurement": "solubility", "setting": "[30]", "value": "< 1", "unit": "µg/mL"}, {"measurement": "clearance", "setting": "[31]", "value": 2.9, "unit": "mL/min/kg"}, {"measurement": "bioavailability", "setting": "[32]", "value": 54, "unit": "%"}, {"measurement": "bioavailability", "setting": "[33]", "value": 75, "unit": "%"}, {"measurement": "Vd", "setting": "[34]", "value": 2.4, "unit": "L/kg"}, {"measurement": "Activity", "setting": "Salmonella typhimurium [35]", "value": "Non-Toxic"}, {"measurement": "Cmax", "setting": "[36]", "value": 2760, "unit": "nM"}, {"measurement": "Activity", "setting": "[37]", "value": 6, "unit": "%"}]}
